Columns and labels:
[1] = tested on: Microcystis aeruginosa; test: 14-day flask exposure of Microcystis aeruginosa to BADA; type: cell-based; settings: at concentrations comparable to Cutrine-Plus
Protocol: (§1) The experiment was conducted for 14 days and was initiated using 100 mL BG-11 medium contained in 200 mL flasks. […] The experiment was initiated by exposing the algae to 0.2, 0.4, 0.8, 1.0, 1.2, 1.4, 1.8, and 2.0 ppm (mg/L) as BADA, 0.5 Cu/L Cutrine®-Plus. The solution was heated in a water bath and diluted to 70 mg/L using warmed deionized water. Cutrine®-Plus stock solution was made at 50 mg/L using deionized water. Three replicates of each exposure concentration, along with three replicates of an untreated reference were tested. Each sample was maintained at room temperature with 12-hours of light and 12-h dark photoperiod. The chlorophyll a concentrations of Microcystis aeruginosa through the 14 day exposure after exposure to concentrations of BADA and Cutrine®-Plus. The results are shown in TABLES 5, and 6, which show the chlorophyll a concentration and the cell density, respectively.

[2] = tested on: Cladophora sp.; test: 14-day flask exposure of Cladophora sp. to BADA; type: cell-based, C. kosterae
Protocol: The experiment was conducted for 14 days and was initiated using 100 mL BG-11 medium contained in 200 mL flasks. […] The solution was heated in a water bath and diluted to 70 mg/L using warmed deionized water. The concentration of DMSO was approximately 350 mg/L in the test beakers. Cutrine®-Plus stock solution was made at 50 mg/L using deionized water. Three replicates of each exposure concentration, along with three replicates of an untreated reference were tested. Each sample was maintained at room temperature with 12-hours of light and 12-h dark photoperiod. […]

[3] = tested on: M. aeruginosa; test: Repeat exposure of M. aeruginosa to BADA at 25-200 ppb; type: cell-based
Protocol: as §1
Example 5 was repeated but using the N,N-bis-(3-aminopropyl) dodecylamine in the amounts of 200 parts per billion ((ppb) 0.2 ppm), 100 parts per billion ((ppb) 0.1 ppm), 75 parts per billion ((ppb) 0.075 ppm), 50 parts per billion ((ppb) 0.05 ppm), and 25 parts per billion ((ppb) 0.025 ppm). A control example was also repeated since the M. aeruginosa was from a different culture and the test were conducted at different times. The results are shown in TABLES 8, and 9, which show the chlorophyll a concentration and the cell density, respectively.

## CCCCCCCCCCCCN(CCCN)CCCN [BADA, N,N-bis-(3-aminopropyl) dodecylamine]
[1]
  effectiveness as an algaecide on Microcystis aeruginosa: effective
[2]; BADA 0.2 ppm, day 0 (initial)
  Extracted chlorphylll a concentrations of C. kosterae cultures: 14.21 μg/sample
[2]; BADA 0.2 ppm, day 14
  Extracted chlorphylll a concentrations of C. kosterae cultures: 11.01 μg/sample
[2]; BADA 0.4 ppm, day 0 (initial)
  Extracted chlorphylll a concentrations of C. kosterae cultures: 14.21 μg/sample
[2]; BADA 0.4 ppm, day 14
  Extracted chlorphylll a concentrations of C. kosterae cultures: 13.15 μg/sample
[2]; BADA 0.8 ppm, day 0 (initial)
  Extracted chlorphylll a concentrations of C. kosterae cultures: 14.21 μg/sample
[2]; BADA 0.8 ppm, day 14
  Extracted chlorphylll a concentrations of C. kosterae cultures: 12.54 μg/sample
[2]; BADA 1.0 ppm, day 0 (initial)
  Extracted chlorphylll a concentrations of C. kosterae cultures: 14.21 μg/sample
[2]; BADA 1.0 ppm, day 14
  Extracted chlorphylll a concentrations of C. kosterae cultures: 13.26 μg/sample
[2]; BADA 1.2 ppm, day 0 (initial)
  Extracted chlorphylll a concentrations of C. kosterae cultures: 14.21 μg/sample
[2]; BADA 1.2 ppm, day 14
  Extracted chlorphylll a concentrations of C. kosterae cultures: 11.15 μg/sample
[2]; BADA 1.4 ppm, day 0 (initial)
  Extracted chlorphylll a concentrations of C. kosterae cultures: 14.21 μg/sample
[2]; BADA 1.4 ppm, day 14
  Extracted chlorphylll a concentrations of C. kosterae cultures: 8.63 μg/sample
[2]; BADA 1.8 ppm, day 0 (initial)
  Extracted chlorphylll a concentrations of C. kosterae cultures: 14.21 μg/sample
[2]; BADA 1.8 ppm, day 14
  Extracted chlorphylll a concentrations of C. kosterae cultures: 8.70 μg/sample
[2]; BADA 2.0 ppm, day 0 (initial)
  Extracted chlorphylll a concentrations of C. kosterae cultures: 14.21 μg/sample
[2]; BADA 2.0 ppm, day 14
  Extracted chlorphylll a concentrations of C. kosterae cultures: 8.32 μg/sample
[2]; at concentrations comparable to Cutrine-Plus
  effectiveness as an algaecide on Cladophora sp.: effective
[3]; BADA 25 ppb, day 0 (initial)
  Cell density of M. aeruginosa cultures: 3.8E+05 cells/mL
  In vivo chlorophyll a concentrations of M. aeruginosa cultures: 1.20 µg/L
[3]; BADA 25 ppb, day 1
  In vivo chlorophyll a concentrations of M. aeruginosa cultures: 0.67 µg/L
[3]; BADA 25 ppb, day 5
  In vivo chlorophyll a concentrations of M. aeruginosa cultures: 0.64 µg/L
[3]; BADA 25 ppb, day 7
  In vivo chlorophyll a concentrations of M. aeruginosa cultures: 1.58 µg/L
[3]; BADA 25 ppb, day 12
  In vivo chlorophyll a concentrations of M. aeruginosa cultures: 7.91 µg/L
[3]; BADA 25 ppb, day 14
  Cell density of M. aeruginosa cultures: 7.3E+06 cells/mL
  In vivo chlorophyll a concentrations of M. aeruginosa cultures: 10.06 µg/L
[3]; BADA 50 ppb, day 0 (initial)
  Cell density of M. aeruginosa cultures: 3.8E+05 cells/mL
  In vivo chlorophyll a concentrations of M. aeruginosa cultures: 1.20 µg/L
[3]; BADA 50 ppb, day 1
  In vivo chlorophyll a concentrations of M. aeruginosa cultures: 0.48 µg/L
[3]; BADA 50 ppb, day 5
  In vivo chlorophyll a concentrations of M. aeruginosa cultures: 0.04 µg/L
[3]; BADA 50 ppb, day 7
  In vivo chlorophyll a concentrations of M. aeruginosa cultures: 0.06 µg/L
[3]; BADA 50 ppb, day 12
  In vivo chlorophyll a concentrations of M. aeruginosa cultures: 0.71 µg/L
[3]; BADA 50 ppb, day 14
  Cell density of M. aeruginosa cultures: 1.5E+06 cells/mL
  In vivo chlorophyll a concentrations of M. aeruginosa cultures: 1.93 µg/L
[3]; BADA 75 ppb, day 0 (initial)
  Cell density of M. aeruginosa cultures: 3.8E+05 cells/mL
  In vivo chlorophyll a concentrations of M. aeruginosa cultures: 1.20 µg/L
[3]; BADA 75 ppb, day 1
  In vivo chlorophyll a concentrations of M. aeruginosa cultures: 0.50 µg/L
[3]; BADA 75 ppb, day 5
  In vivo chlorophyll a concentrations of M. aeruginosa cultures: 0.05 µg/L
[3]; BADA 75 ppb, day 7
  In vivo chlorophyll a concentrations of M. aeruginosa cultures: 0.05 µg/L
[3]; BADA 75 ppb, day 12
  In vivo chlorophyll a concentrations of M. aeruginosa cultures: 0.60 µg/L
[3]; BADA 75 ppb, day 14
  Cell density of M. aeruginosa cultures: 1.4E+06 cells/mL
  In vivo chlorophyll a concentrations of M. aeruginosa cultures: 1.77 µg/L
[3]; BADA 100 ppb, day 0 (initial)
  Cell density of M. aeruginosa cultures: 3.8E+05 cells/mL
  In vivo chlorophyll a concentrations of M. aeruginosa cultures: 1.20 µg/L
[3]; BADA 100 ppb, day 1
  In vivo chlorophyll a concentrations of M. aeruginosa cultures: 0.55 µg/L
[3]; BADA 100 ppb, day 5
  In vivo chlorophyll a concentrations of M. aeruginosa cultures: 0.03 µg/L
[3]; BADA 100 ppb, day 7
  In vivo chlorophyll a concentrations of M. aeruginosa cultures: 0.03 µg/L
[3]; BADA 100 ppb, day 12
  In vivo chlorophyll a concentrations of M. aeruginosa cultures: 0.31 µg/L
[3]; BADA 100 ppb, day 14
  Cell density of M. aeruginosa cultures: 8.7E+05 cells/mL
  In vivo chlorophyll a concentrations of M. aeruginosa cultures: 0.98 µg/L
[3]; BADA 200 ppb, day 0 (initial)
  Cell density of M. aeruginosa cultures: 3.8E+05 cells/mL
  In vivo chlorophyll a concentrations of M. aeruginosa cultures: 1.20 µg/L
[3]; BADA 200 ppb, day 1
  In vivo chlorophyll a concentrations of M. aeruginosa cultures: 0.50 µg/L
[3]; BADA 200 ppb, day 5
  In vivo chlorophyll a concentrations of M. aeruginosa cultures: 0.03 µg/L
[3]; BADA 200 ppb, day 7
  In vivo chlorophyll a concentrations of M. aeruginosa cultures: 0.02 µg/L
[3]; BADA 200 ppb, day 12
  In vivo chlorophyll a concentrations of M. aeruginosa cultures: 0.05 µg/L
[3]; BADA 200 ppb, day 14
  Cell density of M. aeruginosa cultures: 1.4E+05 cells/mL
  In vivo chlorophyll a concentrations of M. aeruginosa cultures: 0.16 µg/L

Source: patent publication US20180249707A1, “METHOD OF CONTROLLING ALGAE IN A BODY OF WATER” (priority 2013, published 2018)
